{"source": "patent US11446253B2", "about": "“Ionic liquids for internal delivery” (priority 2017, dated 2022)", "key": {"[1]": {"test_system": "4T1 cells", "assay": "4T1 cell viability, calcein-AM assay", "type": "cell-based", "conditions": "drug solubilized in CAGE (1:1) vs DMSO", "protocol": "In vitro anticancer efficacy of drug-loaded liposomes was determined using calcein-AM cell viability assay (Life Technologies). 4T1 cells were seeded in a 96-well cell culture plate at a density of 11,000 cells per well or 1,000 cells per well in a total volume of 100 μL media and allowed to adhere overnight. […] After incubation with drug, media was aspirated and replaced with 1 μM calcein-AM in PBS for 30 minutes at room temperature. Fluorescence intensity of intracellularly hydrolyzed calcein-AM was measured using excitation and emission wavelengths of 490 nm and 520 nm. Fractional cell inhibition was calculated by subtracting fluorescence of live cells in experimental wells from those of untreated cells and normalizing against untreated cells."}, "[2]": {"assay": "Solubility of hydrophobic drugs in CAGE", "conditions": "organic solvent or mixture"}, "[3]": {"test_system": "rats", "conditions": "cited from earlier work"}, "[4]": {"assay": "physchem", "conditions": "organic solvent or mixture"}, "[5]": {"test_system": "Caco-2 cells", "assay": "Tight junction integrity (TEER) in Caco-2 cells", "type": "cell-based, human", "protocol": "[…] Furthermore, TEER was measured at every time point when aliquots were withdrawn from the transwells and plotted as % change from initial value vs time.\nTEER values were recorded for each insert. […] TEER was plotted as % change from initial value vs time."}, "[6]": {"test_system": "Caco-2 monolayers", "assay": "FITC-insulin transport across Caco-2 monolayers", "type": "cell-based, human", "protocol": "TEER was measured on a regular basis and when it reached above 200 ohms·cm^2, indicating sufficient tight junction integrity between cells, transport study was performed.\n(§1) After the end of study at 5 h, the FITC-insulin concentration in the aliquots were measured using a plate reader (Tecan, Infinite M1000, Mannedorf, Switzerland) at 495/520 nm excitation/emission wavelengths and plotted as % FITC-insulin transport vs time. Furthermore, TEER was measured at every time point when aliquots were withdrawn from the transwells and plotted as % change from initial value vs time.\nTEER was measured on a regular basis and when it reached above 200 ohms. cm2, indicating sufficient tight junction integrity between cells, transport study was performed.\nas §1, with “[…]” for “% change from initial value”"}, "[7]": {"test_system": "non-diabetic male Wistar rats", "assay": "Blood glucose lowering after intrajejunal administration", "type": "in vivo, rat", "conditions": "intrajejunal controls (neat CAGE, 3 U/kg insulin-saline), 5 h", "quoted_text": "Before the start of the study, the rats were anesthetized, abdominal hair clipped and the area prepped for surgery using 70% ethanol and betadine. An incision was made in the abdomen to expose the intestine. […] Each formulation was tested in 6 rats with the exception of saline which was tested in only 3 rats. Thereafter, intestinal section was placed back into the abdomen and the muscle and skin sutured. Blood glucose was determined using a commercial glucose meter in the beginning and at every 0.5 h till the end of study at 5 h. The animals remained anesthetized throughout the study, at the end of which they were euthanized and the intestinal section around the injection site was removed for further histological examination to determine toxicity, if any. […] The results were plotted as % change in blood glucose levels with respect to initial reading at t=0 vs time.\nBefore the start of the study, the rats were anesthetized, abdominal hair clipped, and the surgery area was prepped using 70% ethanol and betadine. An incision was made in the abdomen to expose the intestine. […] The time zero blood glucose was taken after the intestine was exposed i.e. immediately prior to the injections. Each formulation was tested in 6 rats with the exception of saline which was tested in only 3 rats. Thereafter, intestinal section was placed back into the abdomen and the muscle and skin sutured. Blood glucose was determined using a commercial glucose meter at the beginning and at every 0.5 h till the end of study at 5 h. Loss in body temperature in the animals during anesthesia was prevented by placing the animals on temperature controlled warming pads prior to surgery followed by additional towel cover after surgery. The animals remained anesthetized throughout the study and were euthanized after 5 h. At the end of study at 5 h, the intestinal section around the injection site was removed for further histological examination to determine toxicity, if any. […] The results were plotted as % change in blood glucose levels with respect to initial reading vs time. In addition, the saline group was considered as fasting control and graphs were plotted after subtracting blood glucose levels of the saline group."}, "[8]": {"test_system": "non-diabetic male Wistar rats", "assay": "Blood glucose lowering after oral administration in enterically coated capsules", "type": "in vivo, rat", "conditions": "oral controls, 12 h", "protocol": "(§2) For the oral efficacy study, adult non-diabetic male Wistar rats were fasted overnight but given free access to water. On the next day, the capsules were administered to the rats using an oral gavage followed by subcutaneous administration of 5 mg/kg metoclopramide HCl to promote gastric emptying. Blood glucose was thereafter measured using a commercial glucose meter and subsequently every hour till 12 h. Rats were fasted throughout the period of study. […] In addition, the efficacy of subcutaneously injected 2 U/kg insulin-saline was also evaluated. […] The results were plotted as percent change in blood glucose level vs time.\nas §2, with “To determine the efficacy of insulin-CAGE administered through the oral route, elongated size 9 capsules were used. […] Following this, the capsules were enterically coated three times with 12.5% w/v Eudragit® L-100 dissolved in isopropanol. For” for “For”, “Next” for “On the next”, “was” for “was also”, “time. […] After 12 h of study, rats were euthanized, and small intestinal sections were collected for tissue histology.” for “time.”"}, "[9]": {"test_system": "Caco-2 cells", "conditions": "Caco-2, 12-48 h incubation", "protocol": "Control wells were filled with media only. […] The plates were wrapped in foil and shaken for 20 min, then absorbance was read at 570 nm using a microplate reader (M220 Infinite Pro, Tecan Group Ltd, Morrisville, N.Y.). Absorbance readings were normalized using the non-treated cell viability values."}, "[10]": {"conditions": "FITC labeled dextran, neat CAGE sample", "protocol": "These experiments were done using skin as a model tissue. […] 50 ul of each sample was injected intradermally into one side of a 5 cm×5 cm square of porcine skin. […] The samples were incubated at RT for 2 h (while we were getting trained) and then imaged. The samples were incubated for an additional 2 h at 37° C. and imaged again. 2 h samples had different exposures (we were still learning the system). The 4 h samples were all taken at the same exposure. The size of the fluorescing area for each sample and time point was estimated by drawing a shape around the area manually using ImageJ™"}, "[11]": {"test_system": "Caco-2 monolayers", "conditions": "for enhancement of 4 kDa FITC-dextran transport: various time points", "protocol": "(§3) Before the start of the experiment, the medium in the transwells was replaced with DMEM devoid of phenol red, FBS and P/S in both the apical (200 μL) and basolateral side (600 μL) and the cells were incubated for 30 minutes. […] This was repeated at 1, 2, 3, 4 and 5 h. During the study, the transwell plates were placed inside an incubator at 37° C., 5% CO2 on a shaker rotating at 100 rpm and only taken out to remove aliquots at each time point. After the end of study at 5 h, fluorescence in the aliquots with FTIC-dextran concentrations were measured using a plate reader (BioTek Synergy NEO HTS™ microplate reader (Winooski, Vt., USA) at 485/530, 495/520 and 468/568 nm excitation/emission wavelengths, respectively. Calibration solutions for each test article were prepared and analyzed using fluorescence readings for FITC-dextran which was used to plot of basolateral chamber concentration vs time plots."}, "[12]": {"test_system": "Caco-2 monolayers", "protocol": "For transport experiments in transwells, a 3-day rapid Caco-2 growth system was used. Cells were placed in Corning® basal seeding medium (BSM) supplemented with MITO serum+ extender and seeded at density of 400,000 cells/mL on Millicell® PCF inserts placed inside 24-well plates. 500 μL of cells containing medium was placed in apical side while 1000 μL of cell free BSM was put in the basolateral side as per manufacturer recommendation. After 24 h of incubation at 37° C., 5% CO2, the medium was replaced with same volume of enterocyte differentiation medium supplemented with MITO serum+ extender for another 2-4 days.\nas §3, with “During the study, the transwell plates were placed inside an incubator at 37° C., 5% CO2 on a shaker rotating at 100 rpm and only taken out to remove aliquots at each time point.” left out, “LY and coumarin-6” for “FTIC-dextran”, “LY and coumarin-6” for “FITC-dextran”"}, "[13]": {"test_system": "Caco-2 cells", "assay": "GFP plasmid transfection of Caco-2 cells", "type": "cell-based, human", "conditions": "Caco-2, CAGE in lieu of lipofectamine, P3000 0.09%", "protocol": "Caco-2 cells were seeded at 80% confluency in either 96-well half area or 24-well tissue culture treated plates a day prior to adding transfection reagents. For lipofectamine transfection studies, Lipofectamine 3000 reagent (final concs. 0.07% or 0.13%) was prepared in Opti-Mem Medium and mixed. A master mix of plasmid DNA was prepared separately by diluting the GFP plasmid (50 ng/well for 96-well half area plate or 250 ng/well for 24-well plate) in Opti-Mem Medium with P3000 enhancer reagent (final conc. 0.09% v/v). The master mix of plasmid DNA was added to tubes of the diluted lipofectamine 3000 reagent at a 1:1 ratio. The mixture was allowed to incubate for 20 minutes at room temperature to allow for the plasmid to become incorporated into the cationic lipofectamine. The DNA-lipid complex mixture was then added directly to cells in complete cell culture media at final concs. of 0.07% or 0.13%. Total volume of 96-well half area plate was 100 uL and for the 24-well plate 500 uL. This transfection mixture was removed after 3 days of incubation, washed with DPBS, and replaced with complete DMEM cell culture media.\nIf P3000 enhancer reagent was used, the final conc. was maintained at the same 0.09%. The transfection mixtures were removed after 1 day or 3 days, washed with DPBS, and replaced with complete DMEM cell culture media."}, "[14]": {"test_system": "non-diabetic male Wistar rats", "assay": "In vivo bioactivity of insulin isolated from CAGE after storage", "set-up": "species or system rat", "conditions": "for blood glucose, % of initial level: 1 U/kg subcutaneous", "text": "Prior to insulin injections, rats were fasted overnight but given free access to water and fasting continued throughout the study to eliminate variability in blood glucose due to food consumption. The results were plotted as % change in blood glucose compared to initial level vs time."}, "[15]": {"conditions": "in vivo; cited from earlier work"}}, "note": "pIC50: −log10 of the molar value. Several values for one entry are separate records, joined by “and”; a condition that tells them apart may be missing. Identical values can stand only once. Entries after “also recorded” stand apart in the source; their conditions may differ. Like-named read-outs stand apart in the source and are kept apart here."}
{"compound": "CC[C@@]1(O)C(=O)OCc2c1cc1n(c2=O)Cc2cc3ccccc3nc2-1", "note": "[Camptothecin]", "values": [{"measurement": "effect on 4T1 cells", "setting": "[1]", "value": "just as effective as those solubilized in DMSO"}, {"measurement": "solubility", "setting": "[2]", "value": 54, "unit": "mg/mL"}]}
{"compound": "C[N+](C)(C)CCO", "note": "[Choline]", "values": [{"measurement": "oral LD50", "setting": "[3]; oral", "value": "3,400 mg/kg"}]}
{"compound": "CC(=O)O[C@H]1C(=O)[C@@]2(C)[C@H]([C@H](OC(=O)c3ccccc3)[C@]3(O)C[C@H](OC(=O)[C@H](O)[C@@H](NC(=O)c4ccccc4)c4ccccc4)C(C)=C1C3(C)C)[C@]1(OC(C)=O)CO[C@@H]1C[C@@H]2O", "note": "[Paclitaxel]", "values": [{"measurement": "effect on 4T1 cells", "setting": "[1]", "value": "just as effective as those solubilized in DMSO"}, {"measurement": "solubility", "setting": "[4]", "value": 200, "unit": "mg/mL"}]}
{"compound": "CC(C)=CCC/C(C)=C/C(=O)O", "note": "[geranic acid]", "values": [{"measurement": "oral LD50", "setting": "[3]; rat, in vivo, po", "value": "3,700 mg/kg"}]}
{"compound": "CCCCCCCCCC(=O)[O-].[Na+]", "note": "[sodium caprate, reference compound]", "values": [{"measurement": "tight junction integrity (TEER), % of initial levels", "setting": "[5]; 10 mM sodium caprate, end of study at 24 h", "value": 36, "unit": "%"}]}
{"compound": "Choline And GEranate [CAGE]", "values": [{"measurement": "enhancement of FITC-insulin transport vs no CAGE", "setting": "[6]; 10 mM CAGE (Example 9)", "value": "1.5-2 fold"}, {"measurement": "enhancement of insulin transport compared to insulin in saline", "setting": "[6]; 10 mM CAGE, Caco-2, 5 h study", "value": "3-4 fold"}, {"measurement": "higher transport of insulin compared to insulin-saline treated cells", "setting": "[6]; 10 mM CAGE, all time points over 5 h", "value": "at least 3 times"}, {"measurement": "enhancement of FITC-insulin transport vs no CAGE", "setting": "[6]; 25 mM CAGE", "value": "1.5-2 fold"}, {"measurement": "enhancement of FITC-insulin transport vs no CAGE", "setting": "[6]; 50 mM CAGE, all time points", "value": "> 10", "unit": "fold"}, {"measurement": "TEER drop", "setting": "[5]; 10 mM CAGE, 1 h", "value": 29, "unit": "%"}, {"measurement": "TEER decrease", "setting": "[5]; 25 mM CAGE", "value": "40-50% and ~40%"}, {"measurement": "TEER decrease", "setting": "[5]; 50 mM CAGE", "value": "40-50% and ~50%"}, {"measurement": "TEER recovery, % of initial level", "setting": "[5]; 50 mM CAGE, 24 h", "value": 58, "unit": "%"}, {"measurement": "decrease in blood glucose of control groups, % of initial level", "setting": "[7]", "value": "about 25%"}, {"measurement": "decrease in blood glucose of formulation controls", "setting": "[8]", "value": "about 25%"}, {"measurement": "pIC50", "setting": "[9]", "value": 2.00}, {"measurement": "area increase between 2 h and 4 h", "setting": "[10]", "value": "about 2 ×"}, {"measurement": "enhancement of 4 kDa FITC-dextran transport", "setting": "[11]; 25 mM CAGE", "value": "2-6 fold"}, {"measurement": "enhancement of 4 kDa FITC-dextran transport", "setting": "[11]; 50 mM CAGE", "value": "6-13 fold"}, {"measurement": "enhancement of 4 kDa FITC-dextran transport reached", "setting": "[11]; concentration-dependent, highest", "value": 13, "unit": "fold"}, {"measurement": "enhancement of Lucifer yellow transport", "setting": "[12]; 10 mM CAGE", "value": "~2", "unit": "fold"}, {"measurement": "enhancement of Lucifer yellow transport", "setting": "[12]; 50 mM CAGE, various time points", "value": "7-10 fold"}, {"measurement": "GFP plasmid transfection", "setting": "[13]", "value": "can deliver DNA into cells"}]}
{"compound": "insulin isolated from CAGE: insulin stored in CAGE, isolated by centrifugation and washing, re-suspended in sterile saline", "values": [{"measurement": "bioactivity after storage", "setting": "[14]; stored at 4° C. with CAGE, 4 months", "value": "did not show any loss in bioactivity; also recorded: retained its bioactivity"}, {"measurement": "blood glucose, % of initial level", "setting": "[14]; stored in CAGE at RT for 3 months, 1 h", "value": "61.57±2.38% and 62±2%"}, {"measurement": "blood glucose, % of initial level", "setting": "[14]; stored in CAGE at RT for 3 months, 2 h", "value": "61.98±3.19% and 62±3%"}, {"measurement": "drop in blood glucose", "setting": "[14]; stored in CAGE at RT for 3 months, 1 and 2 h after injection", "value": 38, "unit": "%"}]}
{"compound": "orally administered insulin solution: literature comparator of Ansari et al.", "values": [{"measurement": "oral bioavailability", "setting": "[15]", "value": 1.7, "unit": "%"}]}
